For data set [1], the system named is Staphylococcus epidermidis (ATCC 12228). Kind of data set: MIC assay (broth microdilution, CLSI). Format: cell-based. As to conditions: Staphylococcus epidermidis, ATCC12228; Table 7; b lowest concentration tested; read-out: MIC, S. epidermidis 12228. For orientation: Dilution methods test growth across graded concentrations, often in twofold steps.
The next data set relates to human red blood cells. Kind of data set: Hemolysis assay with red blood cells. Particulars: human, 1 h, 200 μM, pH 7.2. In a few lines:
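Hemolysis expressed as percent of the Triton X signal with DMSO as zero, using OD405 of supernatant. Compounds from DMSO stocks were incubated with triple-washed human erythrocytes for 1 hour at 37° C. before centrifugation; three independent experiments.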

Data set [2] can be described thus: Spectrophotometric determination of dissociation constants (pKa). As to conditions: UV-vis at varying pH, 1:1 water:methanol buffers. Format: physicochemical. How it is done: Dissociation constants (pKa) for select analogues were determined by implementing UV-vis spectroscopy at varying pH values. Buffers were prepared using potassium phosphate monobasic (KH2PO4) and sodium phosphate dibasic (Na2HPO4) in a 1:1 solution of water:methanol to achieve a pH range of 3.78 to 10.94. Compounds were added from 10 mM stock solutions in dimethyl sulfoxide (12.5 μL) to 987.5 μL of each buffer to yield a final compound concentration of 125 μM. Full spectral scans were performed for each evaluated analogue at pH 3.78 and pH 10.94 from 300 to 800 nm to determine λmax values for the protonated phenol (HA; e.g., HP 2 below) and the deprotonated phenolate species (A^−; e.g., conjugate base of HP 2 below). The change in absorption at each determined λmax in relation to pH was then monitored in each buffer and then plotted as absorbance versus pH for each species. The pKa was first estimated by determining the pH of the point of intersection of the two linear curves as shown. The visual estimation was confirmed by plotting pH versus log [A^−/HA]. The resulting plot yielded a linear regression line with a Y-intercept corresponding to a calculated pKa value.

The test system of a further data set is MRSE 35984 biofilms. Kind of data set: Live/Dead staining (fluorescence microscopy) of MRSE 35984 biofilms. The format is cell-based, Staphylococcus epidermidis. As to conditions: 24 h. How it is done: In addition to Calgary Biofilm Device experiments, we evaluated select HPs against staphylococcal biofilms in live/dead staining experiments. HP 14 was added to 24 hour old MRSE biofilms at 0.1, 1, and 10 μM and allowed to incubate at 37° C. for an additional 24 hours. Following this, images of the treated and untreated S. epidermidis biofilm were taken using fluorescence microscopy (FIG. 11).
A mid-log culture of MRSE […] was diluted 1:1,000-fold and 500 μL was transferred to each compartment of a 4 compartment CELLview dish (Greiner Bio-One 627871). The dish was then incubated for 24 hours at 37° C. After this time, the cultures were removed and the plate was washed with 0.9% saline. The dish was then treated with the compounds in fresh media at various concentrations. DMSO was used as our negative control in this assay. The dish was incubated with the compound for 24 hours at 37° C. After this time, the cultures were removed and the dish was washed with 0.9% saline for 2 minutes. Saline was then removed and 500 μL of the stain (Live/Dead BacLight Viability Kit, Invitrogen) were added for 15 minutes and left in the dark. After this time, the stain was removed and the dish was washed twice with 0.9% saline. Then the dish was fixed with 500 μL 4% paraformaldehyde in PBS for 30 minutes. Images of remaining MRSE biofilms were then taken with a fluorescence microscope. All data were analyzed using IMAGE J software.

Data set [3] has as its system MRSA-2 persister cells (stationary cultures). Particulars: 12.5 μM; reduction of viable cells over 24 h; listed as 214.
The subject of a further data set is MRSA BAA-1707. Nature of the data set: MIC assay (broth microdilution, CLSI). As to conditions: Staphylococcus aureus, read-out: MIC, MRSA BAA-1707.
Data set [4] concerns MRSA-2 persister cells (stationary cultures). Nature of the data set: microbe, parasite or virus in culture. Particulars: Staphylococcus aureus, 24 h, read-out: reduction of viable stationary MRSA-2 cells.
The subject of data set [5] is S. aureus clinical isolate SA 129. Nature of the data set: MIC assay (broth microdilution, CLSI). Particulars: Staphylococcus aureus, read-out: MIC, SA 129.
The subject of data set [6] is S. aureus clinical isolate SA 156. Nature of the data set: MIC assay (broth microdilution, CLSI). Particulars: Staphylococcus aureus, read-out: MIC, SA 156.
Data set [7] deals with MRSA biofilms (MRSA-2, BAA-1707, BAA-44). Kind of data set: Calgary Biofilm Device assay, values summarised over MRSA strains.
In the next data set the test system is K. pneumoniae 13883. Kind of data set: MIC assay (broth microdilution, CLSI). Format: cell-based, Klebsiella pneumoniae. Particulars: Klebsiella pneumoniae, 13883; read-out: K. pneumoniae 13883 MIC.
In the next data set the test system is E. coli UAEC-1. Kind of data set: MIC assay (broth microdilution, CLSI). As to conditions: Escherichia coli, UAEC1; read-out: E. coli UAEC-1 MIC. The format is cell-based.
A further data set relates to E. faecium 700221 (VRE). Nature of the data set: MIC assay with Tiron or metal(II) cation co-treatment. Format: cell-based, Enterococcus faecium.
For data set [8], the system named is MRSA BAA-1707 planktonic cells and biofilms. Nature of the data set: Calgary Biofilm Device (CBD) assay, MBC/MBEC. Particulars: Staphylococcus aureus, read-out: MRSA BAA-1707 MBC.

In brackets after ≈: the same amount, converted by molar mass. Several values for one entry are separate records, joined by “and”; a condition that tells them apart may be missing. Identical values can stand only once. Like-named read-outs stand apart in the source and are kept apart here. Where only a bound is given, the exact number is not on record here.

On to `Oc1c(Br)cc(I)c2nc3cc(Cl)c(Cl)cc3nc12` [Compound 14, 2-bromo-7,8-dichloro-4-iodo-1-hydroxyphenazine], for which the MIC was found to be 0.1 µM (≈ 0.047 µg/mL) in [1], 0.3 µM (≈ 0.141 µg/mL) with MRSA BAA-1707, 1.56 µM (≈ 0.733 µg/mL) in data set [5] and 0.3 µM (≈ 0.141 µg/mL) in data set [6]. Further, the “% Hemolysis (200 μM)” value in the data set with human red blood cells is listed as 2.7%. Further, the “% Hemolysis at 200 μM” value in the data set on human red blood cells is given as 2.7%. For the same compound, the pKa in data set [2] came to 6.95. Besides, the “effect on established MRSE biofilm (Live/Dead staining)” value is listed as “a significant amount of MRSE biofilm cells were eradicated, however, not cleared from within the biofilm” in the data set on MRSE 35984 biofilms (0.1 μM); “a significant amount of the biofilm cells” with MRSE 35984 biofilms (1 μM); “removed all detectable MRSE biofilm cells from the glass surface” in the data set on MRSE 35984 biofilms (10 μM). The MRSA-2 stationary killing in data set [3] was over 3 log. Besides, the inhibition at 12.5 µM in data set [4] is over 99.9%. Also, the “MBEC against MRSA biofilms” value in data set [7] was < 10 µM and 6.25 to 9.38 µM.
For `Oc1ccc(I)c2nc3cc(Cl)c(Cl)cc3nc12` [Compound 12, 7,8-Dichloro-4-iodo-1-hydroxyphenazine], in the data set on human red blood cells, the “% Hemolysis (200 μM)” value is reported as 1.4%. Besides, the “% Hemolysis at 200 μM” value with human red blood cells turned out to be 1.4%. The MIC is over 100 µM in the data set with K. pneumoniae 13883; over 100 µM in the data set with E. coli UAEC-1; 3.13 µM with E. faecium 700221 (VRE); 3.13 µM with E. faecium 700221 (VRE) (Enterococcus faecium, VRE); 3.13 µM in the data set on E. faecium 700221 (VRE) (Enterococcus faecium, VRE, read-out: MIC with Tiron); 1.56 µM in the data set with E. faecium 700221 (VRE) (Enterococcus faecium, VRE, E. faecium 700221, 200 μM CuSO4, read-out: MIC with Cu^2+). Besides, the MIC with E. faecium 700221 (VRE) (read-out: MIC with Tiron) turned out to be 3.13 µM; in the data set on MRSA BAA-1707 it was 0.15 µM (≈ 0.0586 µg/mL). The pKa in data set [2] turned out to be 7.70. In data set [8], the MBC worked out at 75 µM (≈ 29.3 µg/mL).

Usually MIC stands for the lowest concentration that inhibits growth of the organism. The term pKa denotes the negative logarithm of the acid dissociation constant.

For the origin of these results see patent publication US20180312473A1, “PHENAZINE DERIVATIVES AS ANTIMICROBIAL AGENTS” (priority 2015, published 2018).
